One compound from EP1372661B1, “GLYCOL DERIVATVES OF XANTHINES FOR TREATING IRRITABLE BOWEL SYNDROME” (SMITHKLINE BEECHAM CORPORATION, priority 2001, dated 2002) can be followed below.

The experiment concerns Zymosan-sensitized rats. Description: Rodent model of zymosan-induced hyperalgesia: visceromotor response to colorectal distension. In kind it is in vivo, Adult male Sprague-Dawley rats. Particulars: intracolonic zymosan (1 mL, 25 mg/mL), CRD 80 mm Hg, 20 seconds, four hours after zymosan, baseline = 100% of control. The text has this:
Protocol for Evaluation of (E)-4-(1,3-bis(cyclohexylmethyl)-1,2,3,6-tetrahydro-2,6-dioxo-9H-purin-8-yl)cinnamic acid nonaethylene glycol methyl ether ester in a Rodent Model of Zymosan-Induced Hyperalgesia
Adult male Sprague-Dawley rats (400-425 g) housed 1-2 per cage in the animal care facility at the University of Iowa (approved by the American Association for Accreditation of Laboratory Animal Care). All experimental procedures were approved by the Institutional Animal Care and Use Committee at the University of Iowa.
Rats were deeply anesthetized with pentobarbital sodium (45 mg/kg) administered intraperitoneally. […]
The descending colon and rectum were distended by pressure-controlled inflation of a 7-8-cm-long flexible latex balloon tied around a flexible tube. […] Intracolonic pressure was continuously monitored by the aid of a pressure control device. Response was quantified as the visceromotor response (VMR), a contraction of the abdominal and hindlimb musculature. EMG activity produced by contraction of the external oblique musculature was quantified using Spike2 software (Cambridge Electronic Designs). Each distension trial lasted 60 seconds, and EMG activity was quantitated in 1-second bins for 20 seconds before distension (baseline), during distention, and 20 seconds after distention. The increase in total number of recorded counts during distention is defined as the response. […]

`COCCOCCOCCOCCOCCOCCOCCOCCOCCOC(=O)/C=C/c1ccc(-c2nc3c([nH]2)c(=O)n(CC2CCCCC2)c(=O)n3CC2CCCCC2)cc1` [(E)-4-(1,3-bis(cyclohexylmethyl)-1,2,3,6-tetrahydro-2,6-dioxo-9H-purin-8-yl)cinnamic acid nonaethylene glycol methyl ether ester]: the “response to colorectal distention (CRD) (as a percent of control)” value runs as follows: (12.5 mg/kg oral gavage at time 0 and 16 hours) “effectively decreased the response to colorectal distention down to baseline levels”; (25 mg/kg oral gavage at time 0 and 16 hours) “effectively decreased the response to colorectal distention down to baseline levels”.
